Consider 32 molecules from US20210317134A1, “UBIQUITIN-SPECIFIC-PROCESSING PROTEASE 7 (USP7) MODULATORS AND USES THEREOF” (RAPT THERAPEUTICS, INC., priority 2019, published 2021).

Usually IC50 stands for the point on the concentration scale where inhibition reaches its midpoint. A high value points to weaker potency in that assay.

Chain of USP7 (Q93009 whole entry): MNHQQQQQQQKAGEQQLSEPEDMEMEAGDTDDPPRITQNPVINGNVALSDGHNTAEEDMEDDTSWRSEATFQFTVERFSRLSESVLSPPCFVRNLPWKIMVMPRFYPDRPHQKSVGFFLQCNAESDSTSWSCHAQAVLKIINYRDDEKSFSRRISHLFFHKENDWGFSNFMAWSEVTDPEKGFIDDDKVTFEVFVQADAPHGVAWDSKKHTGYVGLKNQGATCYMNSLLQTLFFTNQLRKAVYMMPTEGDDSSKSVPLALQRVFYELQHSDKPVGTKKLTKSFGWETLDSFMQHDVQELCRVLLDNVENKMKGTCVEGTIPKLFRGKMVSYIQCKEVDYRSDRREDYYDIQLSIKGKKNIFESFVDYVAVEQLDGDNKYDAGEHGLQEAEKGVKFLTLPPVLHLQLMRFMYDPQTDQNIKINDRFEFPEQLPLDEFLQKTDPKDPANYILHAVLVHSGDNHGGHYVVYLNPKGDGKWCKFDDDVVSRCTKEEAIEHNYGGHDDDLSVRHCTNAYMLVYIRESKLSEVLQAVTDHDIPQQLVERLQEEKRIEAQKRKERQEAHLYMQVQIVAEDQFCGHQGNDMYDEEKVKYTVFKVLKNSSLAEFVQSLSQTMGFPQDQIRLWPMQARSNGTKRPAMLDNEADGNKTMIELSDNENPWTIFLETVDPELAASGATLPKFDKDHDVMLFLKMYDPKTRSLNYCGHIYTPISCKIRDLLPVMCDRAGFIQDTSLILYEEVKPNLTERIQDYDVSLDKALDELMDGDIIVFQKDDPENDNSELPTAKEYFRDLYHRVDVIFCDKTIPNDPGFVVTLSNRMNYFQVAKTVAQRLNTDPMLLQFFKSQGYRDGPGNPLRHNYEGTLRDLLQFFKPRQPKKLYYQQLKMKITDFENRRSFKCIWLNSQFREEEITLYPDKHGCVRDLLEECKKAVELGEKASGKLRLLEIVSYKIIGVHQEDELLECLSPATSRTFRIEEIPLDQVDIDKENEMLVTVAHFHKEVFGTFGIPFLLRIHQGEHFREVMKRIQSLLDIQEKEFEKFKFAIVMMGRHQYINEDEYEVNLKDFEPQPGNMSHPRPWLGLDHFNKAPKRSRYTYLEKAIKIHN

This assay addresses USP7 (Homo sapiens, UniProt Q93009). The assay is described as follows: USP7 inhibitory potency (Table 1). It counts as biochemical.
Turning to `CCC(O)c1cc2nccc(-c3cc(Cl)cc4c3O[C@@H](c3ocnc3CNC)C4)c2s1` (stereo partly drawn) [1-(7-((R)-5-chloro-2-(4-((methylamino)methyl)oxazol-5-yl)-2,3-dihydrobenzofuran-7-yl)thieno[3,2-b]pyridin-2-yl)propan-1-ol], the IC50 was under 1000 nM.

`O=C(C1Cc2cc(Cl)cc(-c3ccnc4[nH]c(Cc5cc6ccccc6cn5)cc34)c2O1)N1CCNCC1` (centres unmarked) [(5-chloro-7-(2-(isoquinolin-3-ylmethyl)-1H-pyrrolo[2,3-b]pyridin-4-yl)-2,3-dihydrobenzofuran-2-yl)(piperazin-1-yl)methanone] registered an IC50 of 1000 to 10000 nM.

The molecule `CCC(O)c1cc2nccc(-c3cc(Cl)cc4c3O[C@@H](c3ocnc3CNCCO)C4)c2s1` (stereo partly drawn) [1-(7-((R)-5-chloro-2-(4-(((2-hydroxyethyl)amino)methyl)oxazol-5-yl)-2,3-dihydrobenzofuran-7-yl)thieno[3,2-b]pyridin-2-yl)propan-1-ol] gave an IC50 of under 1000 nM.

`CCC(O)c1cc2nccc(-c3cc(Cl)cc4c3O[C@@H](c3onc5c3CNCC5)C4)c2o1` (stereo partly drawn) [drawing 1618, 1-(7-((R)-5-chloro-2-(4,5,6,7-tetrahydroisoxazolo[4,3-c]pyridin-3-yl)-2,3-dihydrobenzofuran-7-yl)furo[3,2-b]pyridin-2-yl)propan-1-ol] came in with an IC50 of under 1000 nM.

In turn, `OCc1ccc2c(-c3cc(Cl)cc4c3O[C@@H](c3onc5c3CNCC5)C4)ccnc2c1` [(R)-(4-(5-chloro-2-(4,5,6,7-tetrahydroisoxazolo[4,3-c]pyridin-3-yl)-2,3-dihydrobenzofuran-7-yl)quinolin-7-yl)methanol] registered an IC50 of under 1000 nM.

In turn, `CN(C)[C@@H]1CCN(C(=O)[C@H]2Cc3cc(Cl)cc(-c4ccnc5cc(CO)sc45)c3O2)C1` [((R)-5-chloro-7-(2-(hydroxymethyl)thieno[3,2-b]pyridin-7-yl)-2,3-dihydrobenzofuran-2-yl)((R)-3-(dimethylamino)pyrrolidin-1-yl)methanone] showed an IC50 of under 1000 nM.

The molecule `Clc1cc2c(c(-c3ccnc4cc(-c5cc[nH]n5)sc34)c1)O[C@@H](c1onc3c1CNCC3)C2` [(R)-3-(7-(2-(1H-pyrazol-3-yl)thieno[3,2-b]pyridin-7-yl)-5-chloro-2,3-dihydrobenzofuran-2-yl)-4,5,6,7-tetrahydroisoxazolo[4,3-c]pyridine] yielded an IC50 of under 1000 nM.

As to `C[C@H]1CN(C(=O)C2Cc3cc(Cl)cc(-c4ccnc5[nH]ccc45)c3O2)CCN1` (stereo partly drawn) [(5-chloro-7-(1H-pyrrolo[2,3-b]pyridin-4-yl)-2,3-dihydrobenzofuran-2-yl)((S)-3-methylpiperazin-1-yl)methanone], the IC50 was 1000 to 10000 nM.

Regarding `CCC(O)c1cc2ncnc(-c3cc(Cl)cc4c3O[C@@H](c3onc5c3CNCC5)C4)c2o1` (stereo partly drawn) [1-(4-((R)-5-chloro-2-(4,5,6,7-tetrahydroisoxazolo[4,3-c]pyridin-3-yl)-2,3-dihydrobenzofuran-7-yl)furo[3,2-d]pyrimidin-6-yl)propan-1-ol], the IC50 lay within 1000 to 10000 nM.

Molecule `Clc1cc2c(c(-c3ccnc4cc(Cl)ccc34)c1)O[C@@H](c1onc3c1CNCC3)C2` [(R)-3-(5-chloro-7-(7-chloroquinolin-4-yl)-2,3-dihydrobenzofuran-2-yl)-4,5,6,7-tetrahydroisoxazolo[4,3-c]pyridine] had a 50% inhibitory concentration (IC50) of under 1000 nM.

Molecule `Clc1cc2c(c(-c3ncnc4ccoc34)c1)O[C@@H](c1onc3c1CNCC3)C2` [(R)-3-(5-chloro-7-(furo[3,2-d]pyrimidin-4-yl)-2,3-dihydrobenzofuran-2-yl)-4,5,6,7-tetrahydroisoxazolo[4,3-c]pyridine] had an IC50 of under 1000 nM.

Consider `NC(=O)c1ccc2c(-c3cc(Cl)cc4c3O[C@@H](c3onc5c3CNCC5)C4)ccnc2c1` [(R)-4-(5-chloro-2-(4,5,6,7-tetrahydroisoxazolo[4,3-c]pyridin-3-yl)-2,3-dihydrobenzofuran-7-yl)quinoline-7-carboxamide], for which the IC50 is 1000 to 10000 nM.

In turn, `C[C@H](c1cc2nccc(-c3cc(Cl)cc4c3O[C@@H](C(=O)N3CCNCC3)C4)c2s1)N1C(=O)CCC1=O` [1-((R)-1-(7-((R)-5-chloro-2-(piperazine-1-carbonyl)-2,3-dihydrobenzofuran-7-yl)thieno[3,2-b]pyridin-2-yl)ethyl)pyrrolidine-2,5-dione] registered an IC50 of under 1000 nM.

Take `O=C([C@H]1Cc2cc(Cl)cc(-c3ccnc4cc(N5C(=O)CCC5=O)ccc34)c2O1)N1CCNCC1` [(R)-1-(4-(5-chloro-2-(piperazine-1-carbonyl)-2,3-dihydrobenzofuran-7-yl)quinolin-7-yl)pyrrolidine-2,5-dione]: the IC50 was under 1000 nM.

In turn, `Fc1cccc2c(-c3cc(Cl)cc4c3O[C@@H](c3onc5c3CNCC5)C4)ccnc12` [(R)-3-(5-chloro-7-(8-fluoroquinolin-4-yl)-2,3-dihydrobenzofuran-2-yl)-4,5,6,7-tetrahydroisoxazolo[4,3-c]pyridine] came in with an IC50 of 1000 to 10000 nM.

`CCC(O)(C(=O)N(C)C)c1cc2nccc(-c3cc(Cl)cc4c3O[C@@H](C(=O)N3CCNCC3)C4)c2s1` (stereo partly drawn) [2-(7-((R)-5-chloro-2-(piperazine-1-carbonyl)-2,3-dihydrobenzofuran-7-yl)thieno[3,2-b]pyridin-2-yl)-2-hydroxy-N,N-dimethylbutanamide] displayed an IC50 of under 1000 nM.

For the molecule `N#Cc1ccc2nccc(-c3cc(Cl)cc4c3OC(C(=O)N3CCNCC3)C4)c2c1` (centres unmarked) [4-(5-chloro-2-(piperazine-1-carbonyl)-2,3-dihydrobenzofuran-7-yl)quinoline-6-carbonitrile], the IC50 is 10000 to 30000 nM.

With `CC(O)(CO)c1cc2nccc(-c3cc(Cl)cc4c3O[C@@H](C(=O)N3CCNCC3)C4)c2s1` (stereo partly drawn) [((2R)-5-chloro-7-(2-(1,2-dihydroxypropan-2-yl)thieno[3,2-b]pyridin-7-yl)-2,3-dihydrobenzofuran-2-yl)(piperazin-1-yl)methanone], the IC50 is under 1000 nM.

As for `CCC(O)c1cc2nccc(-c3cc(Cl)cc4c3O[C@@H](c3ocnc3CN3CCNCC3)C4)c2s1` (stereo partly drawn) [1-(7-((R)-5-chloro-2-(4-(piperazin-1-ylmethyl)oxazol-5-yl)-2,3-dihydrobenzofuran-7-yl)thieno[3,2-b]pyridin-2-yl)propan-1-ol], the IC50 is under 1000 nM.

`Cc1c(-c2cc(Cl)cc3c2OC(C(=O)N2CCNCC2)C3)ccnc1N` (centres unmarked) [(7-(2-amino-3-methylpyridin-4-yl)-5-chloro-2,3-dihydrobenzofuran-2-yl)(piperazin-1-yl)methanone] yielded an IC50 of 1000 to 10000 nM.

`OC1(c2cc3nccc(-c4cc(Cl)cc5c4O[C@@H](c4onc6c4CNCC6)C5)c3s2)CNC1` [(R)-3-(7-(5-chloro-2-(4,5,6,7-tetrahydroisoxazolo[4,3-c]pyridin-3-yl)-2,3-dihydrobenzofuran-7-yl)thieno[3,2-b]pyridin-2-yl)azetidin-3-ol] came in with an IC50 of 1000 to 10000 nM.

The molecule `Cn1nc([C@H]2Cc3cc(Cl)cc(-c4ccnc5cc(Cl)ccc45)c3O2)c2c1CCNC2` [(R)-7-chloro-4-(5-chloro-2-(1-methyl-4,5,6,7-tetrahydro-1H-pyrazolo[4,3-c]pyridin-3-yl)-2,3-dihydrobenzofuran-7-yl)quinoline] displayed an IC50 of 10000 to 30000 nM.

Molecule `N#Cc1ccc2c(-c3cc(Cl)cc4c3O[C@@H](c3onc5c3CNCC5)C4)ccnc2c1` [(R)-4-(5-chloro-2-(4,5,6,7-tetrahydroisoxazolo[4,3-c]pyridin-3-yl)-2,3-dihydrobenzofuran-7-yl)quinoline-7-carbonitrile] gave an IC50 of under 1000 nM.

The molecule `CNCCNC(=O)[C@H]1Cc2cc(Cl)cc(-c3ccnc4cc(CO)sc34)c2O1` [(R)-5-chloro-7-(2-(hydroxymethyl)thieno[3,2-b]pyridin-7-yl)-N-(2-(methylamino)ethyl)-2,3-dihydrobenzofuran-2-carboxamide] yielded an IC50 of under 1000 nM.

The molecule `CS(=O)(=O)c1ccc2c(-c3cc(Cl)cc4c3O[C@@H](c3onc5c3CNCC5)C4)ccnc2c1` [(R)-3-(5-chloro-7-(7-(methylsulfonyl)quinolin-4-yl)-2,3-dihydrobenzofuran-2-yl)-4,5,6,7-tetrahydroisoxazolo[4,3-c]pyridine] came in with an IC50 of 1000 to 10000 nM.

As for `O=C([C@H]1Cc2cc(Cl)cc(-c3ccnc4cc(CN5CCCCS5(=O)=O)sc34)c2O1)N1CCNCC1` [(R)-(5-chloro-7-(2-((1,1-dioxido-1,2-thiazinan-2-yl)methyl)thieno[3,2-b]pyridin-7-yl)-2,3-dihydrobenzofuran-2-yl)(piperazin-1-yl)methanone], the IC50 was under 1000 nM.

The molecule `O=C([C@H]1Cc2cc(Cl)cc(-c3ccnc4cc(CO)sc34)c2O1)N1CCC(N2CCCC2)CC1` [(R)-(5-chloro-7-(2-(hydroxymethyl)thieno[3,2-b]pyridin-7-yl)-2,3-dihydrobenzofuran-2-yl)(4-(pyrrolidin-1-yl)piperidin-1-yl)methanone] yielded an IC50 of under 1000 nM.

The molecule `CN(C)C1CCCN(C(=O)[C@H]2Cc3cc(Cl)cc(-c4ccnc5cc(CO)sc45)c3O2)C1` (stereo partly drawn) [((R)-5-chloro-7-(2-(hydroxymethyl)thieno[3,2-b]pyridin-7-yl)-2,3-dihydrobenzofuran-2-yl)(3-(dimethylamino)piperidin-1-yl)methanone] yielded an IC50 of under 1000 nM.

The molecule `O=C(C1Cc2cc(Cl)cc(-c3ccnc(Nc4ccccc4)c3)c2O1)N1CCNCC1` (centres unmarked) [(5-chloro-7-(2-(phenylamino)pyridin-4-yl)-2,3-dihydrobenzofuran-2-yl)(piperazin-1-yl)methanone] gave an IC50 of 10000 to 30000 nM.

`C[C@@H]1CN(C(=O)C2Cc3cc(Cl)cc(-c4ccnc5[nH]ccc45)c3O2)CCN1` (stereo partly drawn) [(5-chloro-7-(1H-pyrrolo[2,3-b]pyridin-4-yl)-2,3-dihydrobenzofuran-2-yl)((R)-3-methylpiperazin-1-yl)methanone] displayed an IC50 of 1000 to 10000 nM.

With `Cn1nc2c(c1[C@H]1Cc3cc(Cl)cc(-c4ncnc5cc(Cl)ccc45)c3O1)CNCC2` [(R)-7-chloro-4-(5-chloro-2-(2-methyl-4,5,6,7-tetrahydro-2H-pyrazolo[4,3-c]pyridin-3-yl)-2,3-dihydrobenzofuran-7-yl)quinazoline], the IC50 is under 1000 nM.

Molecule `Cn1nc2c(c1[C@H]1Cc3cc(Cl)cc(-c4ccnc5cc(CO)sc45)c3O1)CC(N1CCC1)CC2` (stereo partly drawn) [(7-((2R)-2-(5-(azetidin-1-yl)-2-methyl-4,5,6,7-tetrahydro-2H-indazol-3-yl)-5-chloro-2,3-dihydrobenzofuran-7-yl)thieno[3,2-b]pyridin-2-yl)methanol] yielded an IC50 of under 1000 nM.
